Measured values reported in US20230382940A1, “ANTIVIRAL COMPOUNDS AND METHODS OF MAKING AND USING THE SAME” (Gilead Sciences, Inc., priority 2022, published 2023).

Key:
[1] = tested on: Respiratory syncytial virus recombinant with luciferase (RSV-Luc5); test: NHBE RSV-Luc5 384-well assay (EC50 RSVFLUC NHBE-384 v2), Example W; type: cell-based; conditions: human respiratory syncytial virus, 72 h, read-out: EC50 RSV FLUC NHBE 384 V2 (per Ex. W)
From the text: Example W: NHBE RSV-Luc5 384-Well Assay (EC50 RSVFLUC NHBE-384 v2)
Normal Human Bronchial Epithelial (NHBE) cells were purchased from Lonza (Walkersville, MD Cat #CC2540) and maintained in BEGM Bronchial Epithelial Cell Growth Medium BulletKit (Lonza CC-3170).
Cells were thawed, expanded, and were used for experiments at passage 2. Respiratory syncytial virus recombinant with luciferase (RSV-Luc5) (≥1×10^7 Infectious Units/mL (IU/mL) determined by TCID50) was purchased from Microbiologics (Saint Cloud, MN). Viral replication was determined in NHBE cells in the following manner.
(§1) Compounds are prepared in 100% DMSO in 384-well polypropylene plates (Greiner, Monroe, NC, Cat #784201) with 8 compounds per plate in grouped replicates of 4 at 10 serially diluted concentrations (1:3). The serially diluted compounds were transferred to low dead volume Echo plates (Labcyte, Sunnyvale, CA, Cat #LP-0200).
The test compounds were spotted to 384-well assay plates (Greiner, Monroe, NC, Cat #781091) at 200 nL per well using an Echo acoustic dispenser (Labcyte, Sunnyvale, CA). NHBE cells were harvested and suspended in BEGM Bronchial Epithelial Cell Growth Medium BulletKit and seeded to the pre-spotted assay plates at 5,000 cells per well in 30 μL. RSV-Luc5 virus was diluted in BEGM Bronchial Epithelial Cell Growth Medium BulletKit at 500,000 Infectious Units (IU) per mL and 10 μL per well was added to the assay plates containing cells and compounds, for an MOI of 1. The assay plates were incubated for 3 days at 37° C. and 5% CO2. At the end of incubation, One-Glo reagent (Promega, Madison, WI, Cat #E6120) was prepared. The assay plates and One-Glo reagent were equilibrated to room temperature for at least 15 minutes. 40 μL per well of One-Glo reagent was added and the plates were incubated at room temperature for 15 minutes before reading the luminescence signal on an EnVision multimode plate reader (Perkin Elmer, Waltham, MA). Remdesivir was used as positive control and DMSO was used as negative control. Values were normalized to the positive and negative controls (as 0% and 100% replication, respectively) and data was fitted using non-linear regression analysis by Gilead's dose response tool. The EC50 value for each compound was defined as the concentration reducing the viral replication by 50%.

[2] = tested on: Respiratory syncytial virus recombinant with luciferase (RSV-Luc5); test: HEp-2 RSV-Luc5 384-well assay (EC50 RSVFLUC Hep2-384 v2), Example V; type: cell-based; conditions: human respiratory syncytial virus, HEp-2, 72 h, read-out: EC50 RSV FLuc Hep-2 384 V2 (per Ex. V)
From the text: Example V: HEp-2 RSV-Luc5 384-Well Assay (EC50 RSVFLUC Hep2-384 v2)
HEp-2 cell line was purchased from ATCC (Manassas, VA Cat #CCL-23) and maintained in Dulbecco's […] (DMEM) (Corning, New York, NY, Cat #15-018CM) supplemented with 10% fetal bovine serum (FBS) (Hyclone, Logan, UT, Cat #SH30071-03) and 1× Penicillin-Streptomycin-L-Glutamine (Corning, New York, NY, Cat #30-009-C1). Cells were passaged 2 times per week to maintain sub-confluent densities and were used for experiments at passage 5-20. Respiratory syncytial virus recombinant with luciferase (RSV-Luc5) (≥1×107 TCID50/ml) was purchased from Microbiologics (Saint Cloud, MN). Viral replication was determined in HEp-2 cells in the following manner.
as §1
The test compounds were spotted to 384-well assay plates (Greiner, Monroe, NC, Cat #781091) at 200 nL per well. HEp-2 cells were harvested and suspended in DMEM (supplemented with 10% FBS and 1× Penicillin-Streptomycin-L-Glutamine) and seeded to the pre-spotted assay plates at 4,000 cells per well in 30 μL. RSV-Luc5 viruses were diluted in DMEM (supplemented with 10% FBS and 1× Penicillin-Streptomycin-L-(Glutamine) at 200,000 Infectious Units (IU) per mL and 10 μL per well was added to the assay plates containing cells and compounds, for an MOI=0.5. The assay plates were incubated for 3 days at 37° C. and 5% CO2. At the end of incubation, One-Glo reagent (Promega, Madison, WI, Cat #E6120) was prepared. The assay plates and One-Glo reagent were equilibrated to room temperature for at least 15 minutes. 40 μL per well of One-Glo reagent was added and the plates were incubated at room temp for 15 minutes before reading the luminescence signal on an EnVision multimode plate reader (Perkin Elmer, Waltham, MA). Remdesivir was used as positive control and DMSO was used as negative control. Values were normalized to the positive and negative controls (as 0% and 100% replication, respectively) and data was fitted using non-linear regression analysis by Gilead's dose response tool. The EC50 value for each compound was then determined as the concentration reducing the viral replication by 50%.

N#C[C@]1(COC(=O)OC2CCCCC2)O[C@@H](c2ccc3c(N)ncnn23)[C@H](O)[C@@H]1O [Compound 21, ((2R,3S,4R,5S)-5-(4-aminopyrrolo[2,1-f][1,2,4]triazin-7-yl)-2-cyano-3,4-dihydroxytetrahydrofuran-2-yl)methyl cyclohexyl carbonate]
EC50 [1]: 7 µM
EC50 [2]: 21.9 µM

CCOC(=O)OC[C@@]1(C#N)O[C@@H](c2ccc3c(N)ncnn23)[C@H](O)[C@@H]1O [Compound 22, ((2R,3S,4R,5S)-5-(4-aminopyrrolo[2,1-f][1,2,4]triazin-7-yl)-2-cyano-3,4-dihydroxytetrahydrofuran-2-yl)methyl ethyl carbonate]
EC50 [1]: 6.62 µM
EC50 [2]: 26.3 µM

N#C[C@]1(COC(=O)OC2CC2)O[C@@H](c2ccc3c(N)ncnn23)[C@H](O)[C@@H]1O [Compound 23, ((2R,3S,4R,5S)-5-(4-aminopyrrolo[2,1-f][1,2,4]triazin-7-yl)-2-cyano-3,4-dihydroxytetrahydrofuran-2-yl)methyl cyclopropyl carbonate]
EC50 [1]: 7.79 µM
EC50 [2]: 15.4 µM

N#C[C@]1(COC(=O)O[C@@H]2CCOC2)O[C@@H](c2ccc3c(N)ncnn23)[C@H](O)[C@@H]1O [Compound 24, ((2R,3S,4R,5S)-5-(4-aminopyrrolo[2,1-f][1,2,4]triazin-7-yl)-2-cyano-3,4-dihydroxytetrahydrofuran-2-yl)methyl ((R)-tetrahydrofuran-3-yl) carbonate]
EC50 [1]: 7.33 µM
EC50 [2]: 29.5 µM

CC[C@H](C)COC(=O)OC[C@@]1(C#N)O[C@@H](c2ccc3c(N)ncnn23)[C@H](O)[C@@H]1O [Compound 28, ((2R,3S,4R,5S)-5-(4-aminopyrrolo[2,1-f][1,2,4]triazin-7-yl)-2-cyano-3,4-dihydroxytetrahydrofuran-2-yl)methyl ((S)-2-methylbutyl) carbonate]
EC50 [1]: 9.4 µM
EC50 [2]: 18.2 µM

N#C[C@]1(COC(=O)OCc2ccccc2)O[C@@H](c2ccc3c(N)ncnn23)[C@H](O)[C@@H]1O [Compound 29, ((2R,3S,4R,5S)-5-(4-aminopyrrolo[2,1-f][1,2,4]triazin-7-yl)-2-cyano-3,4-dihydroxytetrahydrofuran-2-yl)methyl benzyl carbonate]
EC50 [1]: 10.9 µM
EC50 [2]: 19.6 µM

N#C[C@]1(COC(=O)OCC2CCCC2)O[C@@H](c2ccc3c(N)ncnn23)[C@H](O)[C@@H]1O [Compound 30, ((2R,3S,4R,5S)-5-(4-aminopyrrolo[2,1-f][1,2,4]triazin-7-yl)-2-cyano-3,4-dihydroxytetrahydrofuran-2-yl)methyl (cyclopentylmethyl) carbonate]
EC50 [1]: 7.54 µM
EC50 [2]: 23 µM

CCC(CC)COC(=O)OC[C@@]1(C#N)O[C@@H](c2ccc3c(N)ncnn23)[C@H](O)[C@@H]1O [Compound 31, ((2R,3S,4R,5S)-5-(4-aminopyrrolo[2,1-f][1,2,4]triazin-7-yl)-2-cyano-3,4-dihydroxytetrahydrofuran-2-yl)methyl (2-ethylbutyl) carbonate]
EC50 [1]: 8.65 µM
EC50 [2]: 20.3 µM

N#C[C@]1(COC(=O)OCC2CC2)O[C@@H](c2ccc3c(N)ncnn23)[C@H](O)[C@@H]1O [Compound 32, ((2R,3S,4R,5S)-5-(4-aminopyrrolo[2,1-f][1,2,4]triazin-7-yl)-2-cyano-3,4-dihydroxytetrahydrofuran-2-yl)methyl (cyclopropylmethyl) carbonate]
EC50 [1]: 7.12 µM
EC50 [2]: 20.6 µM

N#C[C@]1(COC(=O)O[C@H]2CCOC2)O[C@@H](c2ccc3c(N)ncnn23)[C@H](O)[C@@H]1O [Compound 33, ((2R,3S,4R,5S)-5-(4-aminopyrrolo[2,1-f][1,2,4]triazin-7-yl)-2-cyano-3,4-dihydroxytetrahydrofuran-2-yl)methyl ((S)-tetrahydrofuran-3-yl) carbonate]
EC50 [1]: 8.01 µM
EC50 [2]: 25.1 µM

CCCOCCOC(=O)OC[C@@]1(C#N)O[C@@H](c2ccc3c(N)ncnn23)[C@H](O)[C@@H]1O [Compound 34, ((2R,3S,4R,5S)-5-(4-aminopyrrolo[2,1-f][1,2,4]triazin-7-yl)-2-cyano-3,4-dihydroxytetrahydrofuran-2-yl)methyl (2-propoxyethyl) carbonate]
EC50 [1]: 6.39 µM
EC50 [2]: 17.6 µM

CC(C)(C)CCOC(=O)OC[C@@]1(C#N)O[C@@H](c2ccc3c(N)ncnn23)[C@H](O)[C@@H]1O [Compound 35, ((2R,3S,4R,5S)-5-(4-aminopyrrolo[2,1-f][1,2,4]triazin-7-yl)-2-cyano-3,4-dihydroxytetrahydrofuran-2-yl)methyl (3,3-dimethylbutyl) carbonate]
EC50 [1]: 5.78 µM
EC50 [2]: 18.9 µM

N#C[C@]1(COC(=O)OC2CC3(CCC3)C2)O[C@@H](c2ccc3c(N)ncnn23)[C@H](O)[C@@H]1O [Compound 36, ((2R,3S,4R,5S)-5-(4-aminopyrrolo[2,1-f][1,2,4]triazin-7-yl)-2-cyano-3,4-dihydroxytetrahydrofuran-2-yl)methyl spiro[3.3]heptan-2-yl carbonate]
EC50 [1]: 8.42 µM
EC50 [2]: 14.3 µM

CC1(C)CC(OC(=O)OC[C@@]2(C#N)O[C@@H](c3ccc4c(N)ncnn34)[C@H](O)[C@@H]2O)C1 [Compound 37, ((2R,3S,4R,5S)-5-(4-aminopyrrolo[2,1-f][1,2,4]triazin-7-yl)-2-cyano-3,4-dihydroxytetrahydrofuran-2-yl)methyl (3,3-dimethylcyclobutyl) carbonate]
EC50 [1]: 7.44 µM
EC50 [2]: 21.3 µM

COC[C@@H](C)OC(=O)OC[C@@]1(C#N)O[C@@H](c2ccc3c(N)ncnn23)[C@H](O)[C@@H]1O [Compound 38, ((2R,3S,4R,5S)-5-(4-aminopyrrolo[2,1-f][1,2,4]triazin-7-yl)-2-cyano-3,4-dihydroxytetrahydrofuran-2-yl)methyl ((R)-1-methoxypropan-2-yl) carbonate]
EC50 [1]: 7.61 µM
EC50 [2]: 50 µM

N#C[C@]1(COC(=O)O[C@@H]2C[C@@H]3C[C@@H]3C2)O[C@@H](c2ccc3c(N)ncnn23)[C@H](O)[C@@H]1O [Compound 39, ((2R,3S,4R,5S)-5-(4-aminopyrrolo[2,1-f][1,2,4]triazin-7-yl)-2-cyano-3,4-dihydroxytetrahydrofuran-2-yl)methyl ((1R,3r,5S)-bicyclo[3.1.0]hexan-3-yl) carbonate]
EC50 [1]: 7.84 µM
EC50 [2]: 28.1 µM

C[C@H]1CC[C@H](OC(=O)OC[C@@]2(C#N)O[C@@H](c3ccc4c(N)ncnn34)[C@H](O)[C@@H]2O)CC1 [Compound 40, ((2R,3S,4R,5S)-5-(4-aminopyrrolo[2,1-f][1,2,4]triazin-7-yl)-2-cyano-3,4-dihydroxytetrahydrofuran-2-yl)methyl ((1r,4R)-4-methylcyclohexyl) carbonate]
EC50 [1]: 7.42 µM
EC50 [2]: 26.7 µM
